# Test results as given in patent US10588316B2 (priority 2015, dated 2020).
# “And” between values parts separate entries of the source, which are not always exact repeats. Equal values may be shown once. Read-outs that look alike come from different tables or passages of the source.
# Key:
# powdery mildew [1] = assay type: in vivo, wheat
# wheat scab [2] = assay type: in vivo; settings: Preparation 50 g/mu; Tebuconazole 10 g ai. agent/mu
# leaf blight [3] = assay type: in vivo, wheat; settings: Preparation 100 (mL/mu); Jinggangmycin 0, Tebuconazole 20 g ai. agent/mu
# leaf blight [4] = assay type: in vivo, wheat
# powdery mildew [5] = assay type: in vivo, wheat; remark: listed apart in the source
# wheat scab [6] = assay type: in vivo; settings: Preparation 100 (mL/mu); Jinggangmycin 0, Tebuconazole 20 g ai. agent/mu
# [7] = system: Fusarium graminearum and Fusarium asiaticum; assay: organism not typed; assay type: cell-based
# powdery mildew [8] = assay type: in vivo, wheat; settings: Preparation 100 (mL/mu); Jinggangmycin 0, Tebuconazole 20 g ai. agent/mu
# [9] = assay type: in vivo, wheat
# wheat scab [10] = assay type: in vivo
# leaf blight [11] = assay type: in vivo, wheat; settings: Preparation 100 g/mu; Jinggangmycin 0, Tebuconazole 20 g ai. agent/mu
# [12] = system: carbendazim-resistant Fusarium asiaticum; assay: microbe, parasite or virus in culture; assay type: cell-based; settings: for DON Biosynthesis Inhibition Rate / Toxin Production Capability: Jinggangmycin + Tebuconazole 0 + 0.1 μg/ml
# rust [13] = assay type: in vivo, wheat
# Fusarium graminearum = assay: microbe, parasite or virus in culture; assay type: cell-based; settings: for Average Fungal Colony Diameter F.g / Growth Inhibition Rate F.g: sensitive strains
# rust [14] = assay type: in vivo, wheat; remark: listed apart in the source
# rust [15] = assay type: in vivo, wheat; settings: Preparation 100 g/mu; Jinggangmycin 0, Tebuconazole 20 g ai. agent/mu
# [16] = assay type: in vivo, wheat; remark: listed apart in the source
# wheat scab [17] = assay type: in vivo; remark: listed apart in the source
# wheat scab [18] = assay type: in vivo; settings: Preparation 100 g/mu; Jinggangmycin 0, Tebuconazole 20 g ai. agent/mu
# rust [19] = assay type: in vivo, wheat; remark: listed apart in the source
# leaf blight [20] = assay type: in vivo, wheat; remark: listed apart in the source
# Fusarium asiaticum = assay: microbe, parasite or virus in culture; assay type: cell-based; settings: for Average Fungal Colony Diameter F.a / Growth Inhibition Rate F.a: sensitive strains
# powdery mildew [21] = assay type: in vivo, wheat; remark: listed apart in the source
# powdery mildew [22] = assay type: in vivo, wheat; remark: listed apart in the source
# wheat scab [23] = assay type: in vivo; remark: listed apart in the source
# leaf blight [24] = assay type: in vivo, wheat; remark: listed apart in the source
# powdery mildew [25] = assay type: in vivo, wheat; settings: Preparation 100 g/mu; Jinggangmycin 0, Tebuconazole 20 g ai. agent/mu
# rust [26] = assay type: in vivo, wheat; settings: Preparation 100 (mL/mu); Jinggangmycin 0, Tebuconazole 20 g ai. agent/mu
# powdery mildew [27] = assay type: in vivo, wheat; settings: dosage g ai./mu: c1 Jinggangmycin, c2 Tebuconazole of the line
# [28] = Tebuconazole 2.0 g ai. agent/mu
# [29] = Tebuconazole 4.0 g ai. agent/mu
# [30] = Tebuconazole 6.0 g ai. agent/mu
# [31] = Tebuconazole 7.5 g ai. agent/mu
# [32] = Tebuconazole 8.8 g ai. agent/mu
# [33] = Tebuconazole 9.5 g ai. agent/mu
# [34] = Tebuconazole 12.0 g ai. agent/mu
# [35] = Tebuconazole 15.0 g ai. agent/mu
# [36] = Tebuconazole 17.5 g ai. agent/mu
# [37] = Tebuconazole 19.0 g ai. agent/mu
# [38] = Preparation 15 g/mu, Tebuconazole 3 g ai. agent/mu
# [39] = Preparation 37.5 g/mu, Tebuconazole 7.5 g ai. agent/mu
# [40] = Preparation 50 g/mu, Tebuconazole 10 g ai. agent/mu
# [41] = Preparation 22.5 g/mu, Tebuconazole 4.5 g ai. agent/mu
# [42] = Preparation 30 g/mu, Tebuconazole 6 g ai. agent/mu
substance,measurement,setting,value
Tebuconazole,Disease Index Prevention Effect % Powdery Mildew,powdery mildew [1]; [28],15.4%
same,Disease Index Prevention Effect % Powdery Mildew,powdery mildew [1]; [29],28.5%
same,Disease Index Prevention Effect % Powdery Mildew,powdery mildew [1]; [30],36.4%
same,Disease Index Prevention Effect % Powdery Mildew,powdery mildew [1]; [31],58.2%
same,Disease Index Prevention Effect % Powdery Mildew,powdery mildew [1]; [32],60.5%
same,Disease Index Prevention Effect % Powdery Mildew,powdery mildew [1]; [33],65.2%
same,Disease Index Prevention Effect % Powdery Mildew,powdery mildew [1]; [34],76.5%
same,Disease Index Prevention Effect % Powdery Mildew,powdery mildew [1]; [35],74.5%
same,Disease Index Prevention Effect % Powdery Mildew,powdery mildew [1]; [36],76.4%
same,Disease Index Prevention Effect % Powdery Mildew,powdery mildew [1]; [37],81.2%
same,Disease Index Prevention Effect % Head Blight,wheat scab [2],72.4%
same,Disease Index Prevention Effect % Leaf Blight,leaf blight [3],83.6%
same,Disease Index Prevention Effect % Leaf Blight,leaf blight [4]; Tebuconazole 6 g ai. agent/mu,64.5%
same,Disease Index Prevention Effect % Leaf Blight,leaf blight [4]; Tebuconazole 9 g ai. agent/mu,70.1%
same,Disease Index Prevention Effect % Leaf Blight,leaf blight [4]; Tebuconazole 15 g ai. agent/mu,72.4%
same,Disease Index Prevention Effect % Leaf Blight,leaf blight [4]; Tebuconazole 21 g ai. agent/mu,73.5%
same,Disease Index Prevention Effect % Powdery Mildew,powdery mildew [5]; Tebuconazole 6 g ai. agent/mu,62.4%
same,Disease Index Prevention Effect % Powdery Mildew,powdery mildew [5]; Tebuconazole 9 g ai. agent/mu,70.8%
same,Disease Index Prevention Effect % Powdery Mildew,powdery mildew [5]; Tebuconazole 15 g ai. agent/mu,76.4%
same,Disease Index Prevention Effect % Powdery Mildew,powdery mildew [5]; Tebuconazole 21 g ai. agent/mu,81.6%
same,Disease Index Prevention Effect % Head Blight,wheat scab [6],84.6%
same,activity of tebuconazole relative to carbendazim (by EC50),[7]; sensitive strains,about 4.5 times
same,activity of tebuconazole relative to phenamacril (by EC50),[7]; sensitive strains,about 1.5 times
same,inhibition rate on the hyphal growth of the head blight fungi,[7]; tebuconazole 0.1 μg/ml alone,about 50%
same,Disease Index Prevention Effect % Powdery Mildew,powdery mildew [8],88.2%
same,Thousand Kernel Weight,[9]; [38],40 g
same,Thousand Kernel Weight,[9]; [39],41.5 g
same,Thousand Kernel Weight,[9]; [40],40.8 g
same,Disease Index Prevention Effect % Head Blight,wheat scab [10]; [28],12.9%
same,Disease Index Prevention Effect % Head Blight,wheat scab [10]; [29],25.6%
same,Disease Index Prevention Effect % Head Blight,wheat scab [10]; [30],42.5%
same,Disease Index Prevention Effect % Head Blight,wheat scab [10]; [31],56.7%
same,Disease Index Prevention Effect % Head Blight,wheat scab [10]; [32],61.5%
same,Disease Index Prevention Effect % Head Blight,wheat scab [10]; [33],65.4%
same,Disease Index Prevention Effect % Head Blight,wheat scab [10]; [34],68.4%
same,Disease Index Prevention Effect % Head Blight,wheat scab [10]; [35],71.8%
same,Disease Index Prevention Effect % Head Blight,wheat scab [10]; [36],73.9%
same,Disease Index Prevention Effect % Head Blight,wheat scab [10]; [37],74.2%
same,Disease Index Prevention Effect % Leaf Blight,leaf blight [11],84.2%
same,DON Biosynthesis Inhibition Rate,[12]; 7 days,4.2%
same,Toxin Production Capability,[12]; 7 days,87.42 μgDON/g by dry weight of hyphae
same,DON Biosynthesis Inhibition Rate,[12]; 14 days,0.6%
same,Toxin Production Capability,[12]; 14 days,52.50 μgDON/g by dry weight of hyphae
same,inhibitory effect on toxin biosynthesis capability versus blank control,"[12]; tebuconazole 0.1 μg/ml, seven and fourteen days",does not have significant inhibitory effects
same,Disease Index Prevention Effect % Rust,rust [13]; Tebuconazole 6 g ai. agent/mu,61.5%
same,Disease Index Prevention Effect % Rust,rust [13]; Tebuconazole 9 g ai. agent/mu,72.6%
same,Disease Index Prevention Effect % Rust,rust [13]; Tebuconazole 15 g ai. agent/mu,78.3%
same,Disease Index Prevention Effect % Rust,rust [13]; Tebuconazole 21 g ai. agent/mu,86.1%
same,Median Effective Concentration (EC50) for Growth Inhibition,Fusarium graminearum; F.g sensitive strains,0.096 µg/mL
same,Average Fungal Colony Diameter F.g,Fusarium graminearum; Tebuconazole 0.02 μg/mL,42 mm
same,Growth Inhibition Rate F.g,Fusarium graminearum; Tebuconazole 0.02 μg/mL,34.2%
same,Average Fungal Colony Diameter F.g,Fusarium graminearum; Tebuconazole 0.078 μg/mL,32 mm
same,Growth Inhibition Rate F.g,Fusarium graminearum; Tebuconazole 0.078 μg/mL,47.5%
same,Average Fungal Colony Diameter F.g,Fusarium graminearum; Tebuconazole 0.3125 μg/mL,21 mm
same,Growth Inhibition Rate F.g,Fusarium graminearum; Tebuconazole 0.3125 μg/mL,72.1%
same,Average Fungal Colony Diameter F.g,Fusarium graminearum; Tebuconazole 5.0 μg/mL,9 mm
same,Growth Inhibition Rate F.g,Fusarium graminearum; Tebuconazole 5.0 μg/mL,88.0%
same,Disease Index Prevention Effect % Rust,rust [14]; [28],18.0%
same,Disease Index Prevention Effect % Rust,rust [14]; [29],32.1%
same,Disease Index Prevention Effect % Rust,rust [14]; [30],45.2%
same,Disease Index Prevention Effect % Rust,rust [14]; [31],71.5%
same,Disease Index Prevention Effect % Rust,rust [14]; [32],78.4%
same,Disease Index Prevention Effect % Rust,rust [14]; [33],80.5%
same,Disease Index Prevention Effect % Rust,rust [14]; [34],81.8%
same,Disease Index Prevention Effect % Rust,rust [14]; [35],85.6%
same,Disease Index Prevention Effect % Rust,rust [14]; [36],89.4%
same,Disease Index Prevention Effect % Rust,rust [14]; [37],92.8%
same,Disease Index Prevention Effect % Rust,rust [15],98.5%
same,Thousand Kernel Weight,[16]; Tebuconazole 6 g ai. agent/mu,40.5 g
same,Thousand Kernel Weight,[16]; Tebuconazole 9 g ai. agent/mu,41.5 g
same,Thousand Kernel Weight,[16]; Tebuconazole 15 g ai. agent/mu,42 g
same,Thousand Kernel Weight,[16]; Tebuconazole 21 g ai. agent/mu,42.7 g
same,Disease Index Prevention Effect % Head Blight,wheat scab [17]; Tebuconazole 6 g ai. agent/mu,53.4%
same,Disease Index Prevention Effect % Head Blight,wheat scab [17]; Tebuconazole 9 g ai. agent/mu,65.8%
same,Disease Index Prevention Effect % Head Blight,wheat scab [17]; Tebuconazole 15 g ai. agent/mu,70.4%
same,Disease Index Prevention Effect % Head Blight,wheat scab [17]; Tebuconazole 21 g ai. agent/mu,76.8%
same,Disease Index Prevention Effect % Head Blight,wheat scab [18],80.1%
same,Disease Index Prevention Effect % Rust,rust [19]; [38],64.5%
same,Disease Index Prevention Effect % Rust,rust [19]; [39],75.6%
same,Disease Index Prevention Effect % Rust,rust [19]; [40],82.4%
same,Disease Index Prevention Effect % Leaf Blight,leaf blight [20]; [38],65.4%
same,Disease Index Prevention Effect % Leaf Blight,leaf blight [20]; [39],68.5%
same,Disease Index Prevention Effect % Leaf Blight,leaf blight [20]; [40],64.5%
same,Median Effective Concentration (EC50) for Growth Inhibition,Fusarium asiaticum; F.a carbendazim-resistant strains,0.116 µg/mL
same,Median Effective Concentration (EC50) for Growth Inhibition,Fusarium asiaticum; F.a phenamacril-resistant strains,0.111 µg/mL
same,Median Effective Concentration (EC50) for Growth Inhibition,Fusarium asiaticum; F.a sensitive strains,0.102 µg/mL
same,Average Fungal Colony Diameter F.a,Fusarium asiaticum; Tebuconazole 0.02 μg/mL,43 mm
same,Growth Inhibition Rate F.a,Fusarium asiaticum; Tebuconazole 0.02 μg/mL,32.9%
same,Average Fungal Colony Diameter F.a,Fusarium asiaticum; Tebuconazole 0.078 μg/mL,34 mm
same,Growth Inhibition Rate F.a,Fusarium asiaticum; Tebuconazole 0.078 μg/mL,48.8%
same,Average Fungal Colony Diameter F.a,Fusarium asiaticum; Tebuconazole 0.3125 μg/mL,22 mm
same,Growth Inhibition Rate F.a,Fusarium asiaticum; Tebuconazole 0.3125 μg/mL,70.8%
same,Average Fungal Colony Diameter F.a,Fusarium asiaticum; Tebuconazole 5.0 μg/mL,9 mm
same,Growth Inhibition Rate F.a,Fusarium asiaticum; Tebuconazole 5.0 μg/mL,88.0%
same,Disease Index Prevention Effect % Powdery Mildew,powdery mildew [21]; [38],68.1%
same,Disease Index Prevention Effect % Powdery Mildew,powdery mildew [21]; [39],73.5%
same,Disease Index Prevention Effect % Powdery Mildew,powdery mildew [21]; [40],82.4%
same,Disease Index Prevention Effect % Powdery Mildew,powdery mildew [22]; [38],48.7%
same,Disease Index Prevention Effect % Powdery Mildew,powdery mildew [22]; [41],60.4%
same,Disease Index Prevention Effect % Powdery Mildew,powdery mildew [22]; [42],64.9%
same,Disease Index Prevention Effect % Powdery Mildew,powdery mildew [22]; [39],72.4%
same,Disease Index Prevention Effect % Head Blight,wheat scab [23]; [41],48.2%
same,Disease Index Prevention Effect % Head Blight,wheat scab [23]; [42],53.9%
same,Disease Index Prevention Effect % Leaf Blight,leaf blight [24]; [28],14.5%
same,Disease Index Prevention Effect % Leaf Blight,leaf blight [24]; [29],19.2%
same,Disease Index Prevention Effect % Leaf Blight,leaf blight [24]; [30],29.5%
same,Disease Index Prevention Effect % Leaf Blight,leaf blight [24]; [31],71.2%
same,Disease Index Prevention Effect % Leaf Blight,leaf blight [24]; [32],73.1%
same,Disease Index Prevention Effect % Leaf Blight,leaf blight [24]; [33],74.2%
same,Disease Index Prevention Effect % Leaf Blight,leaf blight [24]; [34],76.5%
same,Disease Index Prevention Effect % Leaf Blight,leaf blight [24]; [35],78.9%
same,Disease Index Prevention Effect % Leaf Blight,leaf blight [24]; [36],80.3%
same,Disease Index Prevention Effect % Leaf Blight,leaf blight [24]; [37],81.2%
same,Disease Index Prevention Effect % Powdery Mildew,powdery mildew [25],96.2%
same,Disease Index Prevention Effect % Rust,rust [26],82.4%
same,Disease Index Prevention Effect % Powdery Mildew,powdery mildew [27],72.61% and 76.19% and 66.32% and 39.46%
